# Test results taken from patent publication US20240285670A1, “THERAPEUTIC TREATMENT OF TUMORS BY BLOCKING THE HEME SYNTHESIS-EXPORT AXIS” (Università degli Studi di Torino, priority 2021, published 2024).
# Tests used:
# ALAS1 = assay: qRT-PCR analysis of ALAS1 expression in SHSY5Y cells; type: cell-based, human; conditions: 5 mM ALA for 15 hours vs non-treated
# Protocol: (A) Heme content in SHSY5Y cells non-treated (NT) or treated with 5 mM ALA for 15 hours. Values are expressed as pmol heme/mg protein. Data represent mean±SEM, n=3; *=P<0.05. (B, C) qRT-PCR analysis of the expression of ALAS1 (B) and FLVCR1a (C) in SHSY5Y cells non-treated (NT) or treated with 5 mM ALA for 15 hours. Transcript abundance, normalized to beta-actin mRNA expression, is expressed as a fold increase over a calibrator sample. Data represent mean±SEM, n=4. For statistical analyses, an unpaired Student's t-test was used; *p<0.05. (D) qRT-PCR analysis of the expression of ALAS1 in SKCO1 cells untreated (NT) or treated with 5 mM ALA for 24 hours. Transcript abundance, normalized to beta-actin mRNA expression, is expressed as a fold increase over a calibrator sample. Data represent mean±SEM, n=5. […] Band intensities were measured by densitometry and normalized to beta-actin expression. […] (F) Proliferation of SHSY5Y cells assessed by crystal violet staining at different time points (starting from the day after plating, named “day 0”). Treatment with 5 mM ALA occurred at “day 0” and cells were monitored until the end of the experiment without medium refresh. […] (G) SKCO1 cells viability measured by the CellTiter-Fluor Cell Viability Assay (Promega, Madison, WI USA, catalog n°G6080) at different time points, starting from the day after plating (named “day 0”), as a readout of cell proliferation. […]
# Caco2 cells = assay: Mitochondrial ATP levels in Caco2 cells; type: cell-based, human; conditions: FLVCR1a-silenced vs scramble shRNA Caco2 cells
# Description: (A, C, E) Activities of the mitochondrial electron transport chain complexes I-IV. FLVCR1a-silenced Caco2 (A), SKCO1 (C) or C80 cells (E) are compared to cells expressing a scramble shRNA. Results were expressed as nmol NAD^+/min/mg mitochondrial protein for complex I, nmol reduced cytochrome c/min/mg mitochondrial protein for complexes II-III, nmol oxidized cytochrome c/min/mg mitochondrial protein for complex IV. Data represent mean±SEM, n=3. For statistical analyses, an unpaired Student's t-test was used; *=p<0.05, **=p<0.01. (B, D, F) Mitochondrial ATP levels measured by a bioluminescent assay kit. FLVCR1a-silenced Caco2 (B), SKCO1 (D) or C80 cells (F) are compared to cells expressing a scramble shRNA. Results are expressed as nmol/mg mitochondrial proteins. […] Results were expressed as nmol NAD^+/min/mg mitochondrial protein for complex I, nmol reduced cytochrome c/min/mg mitochondrial protein for complexes II-III, nmol oxidized cytochrome c/min/mg mitochondrial protein for complex IV. […] (H) Mitochondrial ATP levels measured by a bioluminescent assay kit in Caco2 cells overexpressing FLVCR1a (indicated as FLVCR1a+) compared to cells stably transduced with an empty vector. Results are expressed as nmol/mg mitochondrial proteins. […]
# ATP levels in mitochondria extracts were assessed by the ATP Bioluminescent Assay Kit (Sigma-Aldrich, St. Louis, MO USA, catalog n° FLAA). […]
Molecule,ALAS1 transcript levels (ALAS1),ATP levels in mitochondria (Caco2 cells)
"Cl.NCC(=O)CCC(=O)O [5-ALA, 5-Aminolevulinic acid hydrochloride]",reduced,–
"FLVCR1a shRNA: shRNA specifically down-regulating FLVCR1a without targeting FLVCR1b; pLKO.1 lentiviral clone TRCN0000059599, antisense SEQ ID No.: 2 (antisense TTGCTAATGATGCTGTACTGG; sense CCAGTACAGCATCATTAGCAA)",–,significantly higher ATP levels in mitochondria
